From ChEMBL document CHEMBL4196239, “Bromopyrrole Alkaloid Inhibitors of the Proteasome Isolated from a Dictyonella sp. Marine Sponge Collected at the Amazon River Mouth” (J Nat Prod, 2018)

Assay: Inhibition of yeast chymotrypsin-like 20S proteasome using suc-LLVY-AMC as substrate pretreated for 1 hr followed by substrate addition measured every 2 mins for 1 hr by fluorescence assay
Set-up: species or system Saccharomyces cerevisiae

IC50 [µM]	Structure (SMILES)
23	Nc1nc(/C=C/CNC(=O)c2cc(Br)c[nH]2)c[nH]1
69	NC1=N[C@@]23CCCN2C(=O)c2[nH]cc(Br)c2[C@H]3N1
> 100	N=C(N)Nc1c2n(c(=O)c3[nH]cc(Br)c13)CCC2
9.2	N=C1N[C@@H](O)[C@@]2(N1)[C@@H](Cl)[C@H](CN)[C@H]1CN3C(=O)c4ccc(Br)n4[C@@H]4NC(=N)N[C@@]43[C@@H]12
27	Nc1ncc(/C=C/CNC(=O)c2ccc(Br)[nH]2)[nH]1
> 100	N=C(N)Nc1c2n(c(=O)c3[nH]c(Br)cc13)CCC2
